From patent US20110098296A1, “Thiazole And Oxazole Kinase Inhibitors” (priority 2007, published 2011)

Tests used:
[1] = target: T1, EGFR (Homo sapiens, UniProt P00533); assay: EGFR substrate phosphorylation assay (HTRF); type: biochemical; details: Method (A): Enzyme Mix incubated with compound at 20° C. for 1 hr, reaction started by adding Substrate Mix
T1 construct: made in house; host or cells: baculovirus expression system
How it was run: (§1)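 Baculovirus-expressed kinase (0.8 nM EGFR or 10 nM ErbB2 in enzyme mix) with Peptide C 0.8 μM and ATP 20 μM (substrate-mix levels), MOPS pH 7.5, MnCl2; 90 min, 20 °C, HTRF anti-phosphotyrosine. Method A adds 1 h enzyme–compound preincubation; B none. pIC50, final compound 0.00027–47.6 μM.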

[2] = target: T2, ErbB2 (Homo sapiens, UniProt P04626); assay: ErbB-2 substrate phosphorylation assay (HTRF); type: biochemical; details: Method (A): Enzyme Mix incubated with compound at 20° C. for 1 hr, reaction started by adding Substrate Mix
T2 construct: made in house; host or cells: baculovirus expression system
T2 sequence (P04626 23-1255): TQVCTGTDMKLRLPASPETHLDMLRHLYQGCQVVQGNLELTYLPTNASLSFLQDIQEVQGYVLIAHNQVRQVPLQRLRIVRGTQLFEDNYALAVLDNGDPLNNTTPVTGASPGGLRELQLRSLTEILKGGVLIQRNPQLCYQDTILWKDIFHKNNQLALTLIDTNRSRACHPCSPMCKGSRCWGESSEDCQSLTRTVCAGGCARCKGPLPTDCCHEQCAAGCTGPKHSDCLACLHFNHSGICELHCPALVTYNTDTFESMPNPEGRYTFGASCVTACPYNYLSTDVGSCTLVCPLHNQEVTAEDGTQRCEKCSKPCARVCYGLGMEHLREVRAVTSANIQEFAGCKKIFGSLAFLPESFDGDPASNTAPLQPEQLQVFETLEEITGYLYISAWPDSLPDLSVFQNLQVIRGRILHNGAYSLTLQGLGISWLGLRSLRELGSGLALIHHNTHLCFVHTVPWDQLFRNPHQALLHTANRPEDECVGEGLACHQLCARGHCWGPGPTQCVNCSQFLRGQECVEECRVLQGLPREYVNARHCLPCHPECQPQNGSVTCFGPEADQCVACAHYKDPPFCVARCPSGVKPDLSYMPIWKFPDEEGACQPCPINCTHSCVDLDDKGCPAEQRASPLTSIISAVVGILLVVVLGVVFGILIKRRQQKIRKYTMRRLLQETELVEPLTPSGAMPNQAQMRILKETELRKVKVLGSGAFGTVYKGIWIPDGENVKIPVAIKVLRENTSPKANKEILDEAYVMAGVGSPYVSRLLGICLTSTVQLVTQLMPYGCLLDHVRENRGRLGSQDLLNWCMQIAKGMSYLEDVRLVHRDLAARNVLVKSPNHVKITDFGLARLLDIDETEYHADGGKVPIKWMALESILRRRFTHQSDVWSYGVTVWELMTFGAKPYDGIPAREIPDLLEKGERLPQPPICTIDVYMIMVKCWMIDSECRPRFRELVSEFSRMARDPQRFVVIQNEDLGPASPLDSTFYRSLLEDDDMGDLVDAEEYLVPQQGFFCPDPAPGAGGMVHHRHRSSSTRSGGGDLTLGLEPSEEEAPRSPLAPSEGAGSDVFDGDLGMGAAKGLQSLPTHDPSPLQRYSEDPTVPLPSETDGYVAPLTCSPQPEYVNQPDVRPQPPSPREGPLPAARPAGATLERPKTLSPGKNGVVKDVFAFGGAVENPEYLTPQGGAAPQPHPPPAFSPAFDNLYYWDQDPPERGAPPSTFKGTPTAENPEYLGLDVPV
How it was run: as §1

T1 sequence (P00533 25-1210): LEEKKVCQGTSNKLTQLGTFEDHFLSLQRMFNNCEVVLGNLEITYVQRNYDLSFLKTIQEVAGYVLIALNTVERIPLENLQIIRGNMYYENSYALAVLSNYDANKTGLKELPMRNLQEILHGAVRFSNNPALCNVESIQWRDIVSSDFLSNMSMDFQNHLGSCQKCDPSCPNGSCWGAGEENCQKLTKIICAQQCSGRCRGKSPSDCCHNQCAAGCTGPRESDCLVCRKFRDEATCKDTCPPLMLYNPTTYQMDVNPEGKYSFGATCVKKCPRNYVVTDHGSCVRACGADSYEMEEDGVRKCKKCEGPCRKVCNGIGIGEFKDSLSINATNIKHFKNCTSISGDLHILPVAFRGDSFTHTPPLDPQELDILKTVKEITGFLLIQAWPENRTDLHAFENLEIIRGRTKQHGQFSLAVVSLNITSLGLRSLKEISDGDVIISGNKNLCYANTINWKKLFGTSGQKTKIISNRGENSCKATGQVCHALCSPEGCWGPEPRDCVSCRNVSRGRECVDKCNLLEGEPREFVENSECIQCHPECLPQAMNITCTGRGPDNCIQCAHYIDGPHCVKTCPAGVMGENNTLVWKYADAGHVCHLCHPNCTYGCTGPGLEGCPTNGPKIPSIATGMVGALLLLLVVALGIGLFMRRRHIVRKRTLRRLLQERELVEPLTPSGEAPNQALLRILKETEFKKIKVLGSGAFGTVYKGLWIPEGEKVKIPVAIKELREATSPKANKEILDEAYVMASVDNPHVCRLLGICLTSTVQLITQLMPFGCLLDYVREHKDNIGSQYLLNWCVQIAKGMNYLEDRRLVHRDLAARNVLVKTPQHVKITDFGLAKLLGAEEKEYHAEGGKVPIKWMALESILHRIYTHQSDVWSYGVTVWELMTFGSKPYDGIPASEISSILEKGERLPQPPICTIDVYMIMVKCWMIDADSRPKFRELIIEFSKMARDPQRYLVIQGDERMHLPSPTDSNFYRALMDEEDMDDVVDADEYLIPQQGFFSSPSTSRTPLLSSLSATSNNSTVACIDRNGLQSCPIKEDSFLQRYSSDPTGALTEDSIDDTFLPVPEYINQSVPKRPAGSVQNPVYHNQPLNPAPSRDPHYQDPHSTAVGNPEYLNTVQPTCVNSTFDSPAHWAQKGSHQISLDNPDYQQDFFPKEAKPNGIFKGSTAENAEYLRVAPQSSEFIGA

Row | SMILES | IC50 [1] [nM] | IC50 [2] [nM]
1 | CCc1nc(-c2cccc(NC(=O)c3c(F)cccc3F)c2)c(-c2ccnc(Nc3cccc(CN4CCCC4)c3)n2)s1 [Example 115, N-{3-[2-Ethyl-5-(2-{[3-(1-pyrrolidinylmethyl)phenyl]amino}-4-pyrimidinyl)-1,3-thiazol-4-yl]phenyl}-2,6-difluorobenzamide] | < 100 | < 100
2 | Nc1nc(-c2cccc(C(=O)Nc3c(F)cccc3F)c2)c(-c2ccnc(Nc3cccc(CN4CCCC4)c3)n2)s1 [Example 77, 3-[2-Amino-5-(2-{[3-(1-pyrrolidinylmethyl)phenyl]amino}-4-pyrimidinyl)-1,3-thiazol-4-yl]-N-(2,6-difluorophenyl)benzamide] | < 100 | < 100
3 | CCNc1nc(-c2cccc(NC(=O)C3CC3)c2)c(-c2ccnc(Nc3ccc(OCCN4CCCC4)c(Cl)c3)n2)s1 [Example 63, N-{3-[5-{2-[(3-Chloro-4-{[2-(1-pyrrolidinyl)ethyl]oxy}phenyl)amino]-4-pyrimidinyl}-2-(ethylamino)-1,3-thiazol-4-yl]phenyl}cyclopropanecarboxamide] | < 100 | < 100
4 | Cc1nc(-c2cccc(NC(=O)c3c(F)cccc3F)c2)c(-c2ccnc(Nc3ccc(OC4CCN(C(=O)OCc5ccccc5)CC4)c(F)c3)n2)s1 [Example 106] | < 100 | < 100
5 | COc1cc(Nc2nccc(-c3sc(N)nc3-c3cccc(NC(=O)c4c(F)cccc4F)c3)n2)cc(OC)c1OC [Example 16, N-[3-(2-Amino-5-{2-[(3,4,5-trimethoxyphenyl)amino]pyrimidiN-4-yl}-1,3-thiazol-4-yl)phenyl]-2,6-difluorobenzamide] | < 100 | < 100
6 | Cc1nc(-c2cccc(NC(=O)c3c(F)cccc3F)c2)c(-c2ccnc(Nc3ccc(OCCN(C)C)c(Cl)c3)n2)s1 [Example 103, N-[3-(5-{2-[(3-Chloro-4-{[2-(dimethylamino)ethyl]oxy}phenyl)amino]-4-pyrimidinyl}-2-methyl-1,3-thiazol-4-yl)phenyl]-2,6-difluorobenzamide] | < 100 | < 100
7 | Cc1cc(-c2sc(N)nc2-c2cccc(NC(=O)c3c(F)cccc3F)c2)nc(Nc2cccc(F)c2)n1 [Example 48, N-[3-(2-Amino-5-{2-[(3-fluorophenyl)amino]-6-methyl-4-pyrimidinyl}-1,3-thiazol-4-yl)phenyl]-2,6-difluorobenzamide] | 100 to 1000 | > 1000
8 | Cc1nc(-c2cccc(NC(=O)c3cc(F)ccc3F)c2)c(-c2ccnc(Nc3ccc(OCCN(C)C)c(Cl)c3)n2)o1 [Example 142] | < 100 | < 100
9 | COc1ccc(Nc2nccc(-c3sc(N)nc3-c3cccc(NC(=O)c4c(F)cccc4F)c3)n2)cc1N1CCNCC1 [Example 18, N-[3-(2-Amino-5-{2-[(4-methoxy-3-piperaziN-1-ylphenyl)amino]pyrimidiN-4-yl}-1,3-thiazol-4-yl)phenyl]-2,6-difluorobenzamide] | < 100 | < 100
